Test systems include HS 578T breast; SF-268 CNS; T-47D breast; K-562 leukemia; SK-MEL-2 melanoma; SK-MEL-28 melanoma; RPMI-8226 leukemia; OVCAR-3 ovarian; UACC-257 melanoma; SW-620 colon.
Common to all, as to assay: NCI anticancer screen, dose series, 48 h

We go through 7 molecules from PubChem BioAssay (NCI).

Molecules are shown by their SMILES.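 The compound was tested at five concentrations on cells cultured in 96-well plates, with a 48-hour exposure period. Here, GI50 denotes the concentration required for 50% inhibition of growth. TGI: total growth inhibition.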 A value given as a limit tells only on which side of the number the result lay.

On to `CC1CC2C3CCC4=CC(=O)C=CC4(C)C3(F)C(O)CC2(C)C1(O)C(=O)COP(=O)(O)O` (stereo not given), for which the GI50 in the experiment with HS 578T breast, in the experiment with SF-268 CNS, with T-47D breast, in the experiment on K-562 leukemia, in the experiment with SK-MEL-2 melanoma and in the experiment on SK-MEL-28 melanoma was > 500 µM each time. The GI50 in the experiment on RPMI-8226 leukemia was 16.6 µM; in the experiment with OVCAR-3 ovarian it was > 500 µM; with UACC-257 melanoma, > 500 µM; in the experiment with SW-620 colon, > 500 µM. The TGI in the experiment with HS 578T breast, in the experiment with SF-268 CNS, in the experiment on T-47D breast, in the experiment on K-562 leukemia, in the experiment on SK-MEL-2 melanoma and in the experiment with SK-MEL-28 melanoma was > 500 µM throughout. Also, the TGI with RPMI-8226 leukemia, in the experiment with OVCAR-3 ovarian, with UACC-257 melanoma and in the experiment with SW-620 colon was > 500 µM in each case.
For `COc1cc(CNCCCCCCN2C(=O)c3cccc4cccc(c34)C2=O)ccc1O`, the GI50 in the experiment with HS 578T breast is 10 µM; with SF-268 CNS it was 8.4 µM; in the experiment with T-47D breast, 2.93 µM; with K-562 leukemia, 2.91 µM; in the experiment with SK-MEL-2 melanoma, 5.56 µM; in the experiment with SK-MEL-28 melanoma, 2.06 µM. The GI50 was 2.63 µM in the experiment with RPMI-8226 leukemia, 4.11 µM with OVCAR-3 ovarian, 2.15 µM in the experiment with UACC-257 melanoma and 4.1 µM with SW-620 colon. Besides, the TGI stood at 37.4 µM with HS 578T breast; 24.8 µM in the experiment with SF-268 CNS; 14.3 µM in the experiment on T-47D breast; 11 µM in the experiment with K-562 leukemia; 18.2 µM with SK-MEL-2 melanoma; 4.31 µM in the experiment on SK-MEL-28 melanoma. Further, the TGI turned out to be 7.19 µM in the experiment on RPMI-8226 leukemia, 16.6 µM in the experiment with OVCAR-3 ovarian, 4.49 µM with UACC-257 melanoma and 17.2 µM in the experiment with SW-620 colon.
With `O=C(O)C1=C/C(=C(/c2ccccc2)c2cc(C(=O)O)c(O)c3ccccc23)c2ccccc2C1=O`, the TGI in the experiment with HS 578T breast, with SF-268 CNS, in the experiment on T-47D breast, in the experiment with K-562 leukemia, in the experiment with SK-MEL-2 melanoma and with SK-MEL-28 melanoma was > 100 µM each time. In addition, the TGI with RPMI-8226 leukemia, in the experiment with OVCAR-3 ovarian, with UACC-257 melanoma and in the experiment with SW-620 colon was > 100 µM throughout.
As to `c1cc(N[C@@H]2CCNC2)nc(-c2cnc3ccc(-c4cn[nH]c4)cn23)c1`, the GI50 in the experiment on HS 578T breast is 1.69 µM; in the experiment on SF-268 CNS it was 2.18 µM; in the experiment on T-47D breast, 2.04 µM; with K-562 leukemia it was 3.63 µM; in the experiment on SK-MEL-2 melanoma, 2.55 µM; in the experiment with SK-MEL-28 melanoma, 4.35 µM. Moreover, the GI50 in the experiment on RPMI-8226 leukemia was 11 µM; in the experiment with OVCAR-3 ovarian, 2.92 µM; in the experiment on UACC-257 melanoma, 16.1 µM; in the experiment on SW-620 colon, 6.83 µM. Also, the TGI is 5.54 µM in the experiment with HS 578T breast; 7.1 µM in the experiment on SF-268 CNS; 9.3 µM with T-47D breast; > 55.6 µM in the experiment with K-562 leukemia; 6.82 µM in the experiment on SK-MEL-2 melanoma; 16.9 µM in the experiment on SK-MEL-28 melanoma. For the same molecule, the TGI in the experiment with RPMI-8226 leukemia was determined as 43.9 µM; in the experiment with OVCAR-3 ovarian, 24.8 µM; in the experiment with UACC-257 melanoma, 53.3 µM; in the experiment on SW-620 colon, 52.1 µM.
For `COc1cc(/C=C2\C(=O)N(Cc3ccc(Cl)cc3)c3ccccc32)cc(OC)c1OC`, the GI50 in the experiment with HS 578T breast was 1.65 µM; with SF-268 CNS, 2.76 µM; in the experiment on T-47D breast, 2.16 µM; in the experiment with K-562 leukemia, 2.78 µM; in the experiment with SK-MEL-2 melanoma, 4.86 µM; with SK-MEL-28 melanoma, 1.53 µM. Besides, the GI50 with RPMI-8226 leukemia was 0.645 µM; in the experiment with OVCAR-3 ovarian, 1.57 µM; in the experiment on UACC-257 melanoma, 6.04 µM; in the experiment on SW-620 colon, 1.78 µM. Further, the TGI in the experiment on HS 578T breast was 11.1 µM; in the experiment with SF-268 CNS it was 13.7 µM; in the experiment on T-47D breast, 7.72 µM; in the experiment on K-562 leukemia it was 16.4 µM; in the experiment with SK-MEL-2 melanoma, 18 µM; with SK-MEL-28 melanoma, 3.07 µM. Besides, the TGI with RPMI-8226 leukemia amounted to 2.39 µM; in the experiment on OVCAR-3 ovarian it was 3.31 µM; in the experiment on UACC-257 melanoma it was 26.6 µM; in the experiment with SW-620 colon, 3.53 µM.
For the molecule `COc1ccc2nc3cc(Cl)ccc3c(NCCCNCCO)c2c1`, the GI50 is 1.48 µM in the experiment on HS 578T breast; 0.577 µM with SF-268 CNS; 0.625 µM in the experiment with T-47D breast; 0.383 µM in the experiment with K-562 leukemia; 1.32 µM with SK-MEL-2 melanoma; 1.38 µM with SK-MEL-28 melanoma. The GI50 with RPMI-8226 leukemia was 0.497 µM; in the experiment on OVCAR-3 ovarian it was 0.588 µM; with UACC-257 melanoma, 1.82 µM; with SW-620 colon, 0.304 µM. Besides, the TGI in the experiment with HS 578T breast came out at 5.62 µM; in the experiment on SF-268 CNS, 2.66 µM; in the experiment with T-47D breast, 3.41 µM; in the experiment on K-562 leukemia it was 2.4 µM; in the experiment with SK-MEL-2 melanoma, 2.79 µM; in the experiment on SK-MEL-28 melanoma, 3.06 µM. The TGI in the experiment with RPMI-8226 leukemia was 2.74 µM; in the experiment with OVCAR-3 ovarian, 2.86 µM; in the experiment on UACC-257 melanoma, 3.48 µM; in the experiment with SW-620 colon, 2.68 µM.
On to `COc1ccc2c(c1)OC(N)=C(C#N)C2c1cc(OC)c(OC)c(OC)c1` (stereo not given), for which the GI50 is 0.0408 µM in the experiment on HS 578T breast; 0.0642 µM with SF-268 CNS; > 100 µM in the experiment on T-47D breast; 0.0338 µM in the experiment on K-562 leukemia; 0.0321 µM in the experiment on SK-MEL-2 melanoma; 0.0781 µM with SK-MEL-28 melanoma. The GI50 was 0.0389 µM in the experiment with RPMI-8226 leukemia, 0.0253 µM with OVCAR-3 ovarian, 0.0457 µM in the experiment with UACC-257 melanoma and 0.038 µM in the experiment on SW-620 colon. The TGI in the experiment with HS 578T breast was > 100 µM; in the experiment on SF-268 CNS it was > 100 µM; with T-47D breast, > 100 µM; with K-562 leukemia, > 100 µM; with SK-MEL-2 melanoma, 0.151 µM; in the experiment with SK-MEL-28 melanoma, > 100 µM. For the same molecule, the TGI in the experiment with RPMI-8226 leukemia was > 100 µM; with OVCAR-3 ovarian, 0.0648 µM; in the experiment on UACC-257 melanoma, > 100 µM; with SW-620 colon it was > 100 µM.
